Test [1] concerns Human ovarian cancer cell line SK-OV-3. Put plainly: Test 2 of anti-proliferative activity against tumor cells (Cell-Titer Glo). The format is cell-based. To be noted: for pIC50: SK-OV-3 cells, 5 days, Cell-Titer Glo, read-out: SK-OV-3 Anti-proliferative activity IC50; for IC50: read-out: SK-OV-3 Anti-proliferative activity IC50 (nM). On the procedure:
(§1) Cell culture: SK-OV-3 cells were cultured in McCoy's 5a medium containing 10% fetal bovine serum+1% penicillin-streptomycin, PA-1 cells were cultured in MEM medium containing 10% fetal bovine serum+1% MEM NEAA+1% sodium pyruvate+1% penicillin-streptomycin, NCI-H82 cells and MDA-MB-231 cells were cultured in 1640 medium containing 10% fetal bovine serum+1% penicillin-streptomycin, A549 cells were cultured in DMEM medium containing 10% fetal bovine serum+1% penicillin-streptomycin, all under conditions of 37° C. and 5% CO2. Cells in logarithmic growth phase were suitable for the experiment.
(§2) Detection of cell proliferation activity: The inhibitory activity of the compounds on the proliferation of the five cell lines SK-OV-3, PA-1, NCI-H82, MDA-MB-231 and A549 was detected using Cell-Titer Glo reagent. SK-OV-3 cell (1000 cells per well), PA-1 cells (800 cells per well), NCI-H82 cells (5000 cells per well), MDA-MB-231 cells (3000 cells per well) and A549 cells (400 cells per well) were seeded in 96-well plates and cultured at 37° C. and 5% CO2 for 24 h. The compound to be tested was dissolved in DMSO to a concentration of 1 mM, then subjected to gradient dilution with DMSO and corresponding medium, and transferred to 96-well cell plates to a final concentration of 300 nM (initial concentration), with 3-fold dilution and a total of 9 concentration points. The cells were cultured at 37° C. and 5% CO2 for additional 5 days. The cell viability was detected by adding Cell-Titer Glo reagent.
(§3) Additionally, a negative control group and a positive control group were provided as Bottom and Top, respectively. In the negative control group, the cells were not added, only the same volume of medium was added, and other operations were consistent with those in the experimental group; in the positive control group, the test compound was not added, only the same volume of DMSO was added, and other operations were consistent with those in the experimental group.
(§4) Data analysis: The % compound inhibition was calculated, and fitting was performed to obtain IC50 of the compound.
(§5) % Compound inhibition=1−100%*(Signal−Bottom)/(Top−Bottom).
(§6) Signal represents the signal value of the experimental group, Bottom represents the average signal value of the negative control group, and Top represents the average signal value of the positive control group.

Test [2] has as its system human small cell lung cancer cell line NCI-H82. The test is described as above. The note with it: read-out: NCI-H82 Anti-proliferative activity IC50, NCI-H82 cells, 5 days, Cell-Titer Glo. The test is classed as cell-based. As to the method:
as §1, §2, §3, §4, §5, §6

Test [3] relates to human non-small cell lung cancer cell line A549. The test is described as above. The format is cell-based. The note with it: for IC50: read-out: A549 Anti-proliferative activity IC50 (nM), A549 cells, 5 days, Cell-Titer Glo; for pIC50: read-out: A549 Anti-proliferative activity IC50, A549 cells, 5 days, Cell-Titer Glo. On the procedure:
as §1, §2, §3, §4, §5, §6

In test [4] the test system is human ovarian cancer cell line PA-1. The description is as above. The test is classed as cell-based. The note with it: for IC50: read-out: PA-1 Anti-proliferative activity IC50 (nM), PA-1 cells, 5 days, Cell-Titer Glo; for pIC50: read-out: PA-1 Anti-proliferative activity IC50, PA-1 cells, 5 days, Cell-Titer Glo. As to the method: as §1, §2, §3, §4, §5, §6
Test [5] concerns human breast cancer cell line MDA-MB-231. The test is described as above. The format is cell-based. The note with it: Homo sapiens, MDA-MB-231, 120 h; for IC50: read-out: MDA-MB-231 Anti-proliferative activity IC50 (nM); for pIC50: MDA-MB-231 cells, 5 days, Cell-Titer Glo, read-out: MDA-MB-231 Anti-proliferative activity IC50. As to the method: as §1, §2, §3, §4, §5, §6
A further test has as its target CYP2D6 (Homo sapiens (Human), UniProt P10635). Put plainly: Inhibitory effect on CYP enzymatic activity in human liver microsomes. The format is in vitro ADME. On the procedure:
(§7) The inhibition of CYP2C9, CYP2D6 and CYP3A4 enzymatic activities by the compounds of the present disclosure was determined by the following experimental method.
(§8) • 1. Human liver microsomes (Corning 452117) • 2. NADPH (Solarbio 705Y021) • 3. Positive substrates diclofenac (Sigma SLBV3438), dextromethorphan (TRC 3-EDO-175-1) and midazolam (Cerilliant FE01161704) • 4. Positive inhibitors sulfaphenazole (D. Ehrenstorfer GmbH 109012), quinidine (TCI WEODL-RE) and ketoconazole (Sigma 100M1091V) • 5. AB Sciex Triple Quad 5500 liquid chromatography-mass spectrometry
(§9) • 1. Preparation of 100 mM phosphate buffered saline (PBS): 7.098 g of Na2HPO4 was weighed, 500 mL of pure water was added and subjected to ultrasonic dissolution to obtain solution A. 3.400 g of KH2PO4 was weighed, 250 mL of pure water was added and subjected to ultrasonic dissolution to obtain solution B. Solution A was placed on a stirrer and solution B was slowly added until the pH value reached 7.4 to prepare 100 mM PBS buffer. • 2. Preparation of 10 mM NADPH solution with 100 mM PBS buffer. The 10 mM stock solution of the compound of the present disclosure was diluted with DMSO to obtain a 200× concentration of compound working solution (6000, 2000, 600, 200, 60, 20, 0 μM). The stock solution of positive inhibitors was diluted with DMSO to obtain a 200× concentration of positive inhibitor working solution (sulfaphenazole, 1000, 300, 100, 30, 10, 3, 0 μM; quinidine/ketoconazole, 100, 30, 10, 3, 1, 0.3, 0 μM). A 200× concentration of substrate working solution (120 μM diclofenac, 400 μM dextromethorphan, and 200 μM midazolam) was prepared with water, acetonitrile, or acetonitrile/methanol. • 3. 2 μL of 20 mg/ml liver microsome solution, 1 μL of substrate working solution, 1 μL of compound working solution and 176 μL of PBS buffer were taken, mixed uniformly, and pre-incubated in a 37° C. water bath for 15 min. To the positive control group was added 1 μL of sulfaphenazole, quinidine or ketoconazole working solution instead of compound working solution. A 10 mM NADPH solution was also pre-incubated in the 37° C. water bath for 15 min. After 15 min, 20 μL of NADPH was taken and added to each well to initiate the reaction, and the reaction was incubated at 37° C. for 5 min (CYP2C9), 20 min (CYP2D6) or 5 min (CYP3A4). Double samples were set for all incubation samples. After the corresponding time of incubation, 400 μL of glacial methanol containing internal standard was added to all samples to stop the reaction. The mixture was mixed uniformly by vortex and centrifuged at 3220 g for 40 min at 4° C. After the completion of the centrifugation, 100 μL of the supernatant was transferred to a loading plate, and 100 μL of ultrapure water was added and mixed uniformly for LC-MS/MS analysis.
(§10) The reduction in metabolite production in the administration group compared to the control group was compared by the ratio of sample peak area to internal standard peak area, and IC50 value was calculated by Excel XLfit 5.3.1.3.
(§11) The percent remaining activity was calculated by the following equation: […]
(Microsomes from liver hold many membrane-bound enzymes, among them those of drug oxidation.)

The target of another test is CYP3A4 (Homo sapiens (Human), UniProt P08684). Described as above. The test is classed as in vitro ADME. As to the method: as §7, §8, §9, §10, §11
Chain of CYP3A4 (P08684 whole entry): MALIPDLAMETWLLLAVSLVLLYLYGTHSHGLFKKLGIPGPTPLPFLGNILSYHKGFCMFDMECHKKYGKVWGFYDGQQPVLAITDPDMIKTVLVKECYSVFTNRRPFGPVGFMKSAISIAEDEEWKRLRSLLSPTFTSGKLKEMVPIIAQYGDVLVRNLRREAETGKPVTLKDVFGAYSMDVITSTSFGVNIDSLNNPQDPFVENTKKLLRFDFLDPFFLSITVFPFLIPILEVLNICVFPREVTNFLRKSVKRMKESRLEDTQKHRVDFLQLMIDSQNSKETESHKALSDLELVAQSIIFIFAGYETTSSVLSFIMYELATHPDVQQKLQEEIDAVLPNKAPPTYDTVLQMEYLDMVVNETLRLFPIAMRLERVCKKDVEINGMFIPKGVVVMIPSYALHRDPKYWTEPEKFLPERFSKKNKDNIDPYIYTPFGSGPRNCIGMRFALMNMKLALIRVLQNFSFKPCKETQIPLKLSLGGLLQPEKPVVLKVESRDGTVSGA

SMILES strings stand for the structures. pIC50: −log10 of the molar value. Like-named read-outs stand apart in the source and are kept apart here. A value given as a limit tells only on which side of the number the result lay.

The values below come from patent US20250270227A1, “CAMPTOTHECIN DERIVATIVE, AND PHARMACEUTICAL COMPOSITION AND USE THEREOF” (SIMCERE ZAIMING PHARMACEUTICAL CO., LTD., priority 2021, published 2025).

Chain of CYP2D6 (P10635 whole entry): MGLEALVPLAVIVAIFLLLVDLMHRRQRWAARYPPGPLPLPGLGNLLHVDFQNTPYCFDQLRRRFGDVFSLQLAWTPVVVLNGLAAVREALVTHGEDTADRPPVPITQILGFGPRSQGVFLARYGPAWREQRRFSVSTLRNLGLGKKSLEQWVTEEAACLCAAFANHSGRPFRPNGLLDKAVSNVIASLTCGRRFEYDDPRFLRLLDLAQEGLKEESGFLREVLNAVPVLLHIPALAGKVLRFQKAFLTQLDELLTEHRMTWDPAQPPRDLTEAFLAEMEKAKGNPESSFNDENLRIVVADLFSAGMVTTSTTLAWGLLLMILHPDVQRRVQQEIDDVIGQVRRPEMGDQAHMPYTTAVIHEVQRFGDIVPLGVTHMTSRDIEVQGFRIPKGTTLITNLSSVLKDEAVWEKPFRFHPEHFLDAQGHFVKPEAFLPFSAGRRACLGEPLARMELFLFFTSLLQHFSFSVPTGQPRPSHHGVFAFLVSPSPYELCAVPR

Broadly, the pIC50 is −log10 of the IC50, conventionally taken in molar units. The term IC50 denotes the point on the concentration scale where inhibition reaches its midpoint. In the case of `CC[C@@]1(O)C(=O)OCc2c1cc1n(c2=O)Cc2c-1nc1cc3c(cc1c2CNC(=O)C(O)C1CC1)OCO3` (single isomer, unassigned) [Compound 14-P1], the pIC50 in test [1] (Homo sapiens, SK-OV-3, 120 h) was 8.66; in test [2], 8.66; at CYP2D6 (read-out: Inhibition on CYP2D6 IC50, human liver microsomes, substrate dextromethorphan), less than 4.30; on CYP3A4 it was less than 4.30. In addition, the IC50 in test [3] (Homo sapiens, A549, 120 h) is 10.2 nM; in test [4] (Homo sapiens, PA-1, 120 h), 0.7 nM; in test [5], 7.5 nM.

As for `CC[C@@]1(O)C(=O)OCc2c1cc1n(c2=O)Cc2c-1nc1cc3c(cc1c2CNC(=O)C(O)C1CC1)OCO3` (single isomer, unassigned) [Compound 14-P2], the pIC50 is 8.49 in test [1]; 8.33 in test [2]; 7.84 in test [3]; 9.05 in test [4]; 8.06 in test [5]; less than 4.30 at CYP2D6. Besides, the pIC50 on CYP3A4 (read-out: Inhibition on CYP3A4 IC50, human liver microsomes, substrate midazolam) was less than 4.30.

For `CC[C@@]1(O)C(=O)OCc2c1cc1n(c2=O)Cc2c-1nc1cc3c(c(F)c1c2CNC(=O)[C@@H](O)C1CC1)OCO3` (single isomer, unassigned) [Compound 37-P1], the pIC50 in test [1] (Homo sapiens, SK-OV-3, 120 h) is 8.68; in test [3] (Homo sapiens, A549, 120 h), 8.04; in test [4] (Homo sapiens, PA-1, 120 h), 9.05; in test [5], 7.88; on CYP2D6, less than 4.30; against CYP3A4, less than 4.30.

With `CC[C@@]1(O)C(=O)OCc2c1cc1n(c2=O)Cc2c-1nc1cc3c(cc1c2CNC(=O)C(O)C1CC1)OCO3` (stereo partly drawn) [Compound 14, 2-cyclopropyl-N-(((S)-7-ethyl-7-hydroxy-8,11-dioxo-7,8,11,13-tetrahydro-10H-[1,3]dioxolo[4,5-g]pyrano[3′,4′:6,7]indolizino[1,2-b]quinolin-14-yl)methyl)-2-hydroxyacetamide], the IC50 stood at 3 nM in test [1] (Homo sapiens, SK-OV-3, 120 h) and 9.7 nM in test [3] (Homo sapiens, A549, 120 h). Also, the pIC50 in test [2] (Homo sapiens, 120 h) is 8.41; in test [4] (Homo sapiens, PA-1, 120 h), 9.00; in test [5], 7.98.

As for `[2H]C1([2H])Oc2cc3nc4c(c(CNC(=O)C(O)C5CC5)c3cc2O1)Cn1c-4cc2c(c1=O)COC(=O)[C@]2(O)CC` (stereo partly drawn) [Compound 39, 2-cyclopropyl-N-(((S)-7-ethyl-7-hydroxy-8,11-dioxo-7,8,11,13-tetrahydro-10H-[1,3]dioxolo[4,5-g]pyrano[3′,4′:6,7]indolizino[1,2-b]quinolin-14-yl-2,2-d2)methyl)-2-hydroxyacetamide], the IC50 in test [1] (Homo sapiens, SK-OV-3, 120 h) was found to be 2.6 nM; in test [3] (Homo sapiens, A549, 120 h), 19.1 nM; in test [4] (Homo sapiens, PA-1, 120 h) it was 1.5 nM; in test [5] it was 26.4 nM. The negative-log IC50 (pIC50) at CYP2D6 and at CYP3A4 was less than 4.30 each time.
